# According to US20230312550A1, “N-(2-(4-CYANOTHIAZOLIDIN-3-YL)-2-OXOETHYL)-QUINOLINE-4-CARBOXAMIDES” (AstraZeneca AB, priority 2020, published 2023):
# pIC50, pKd: −log10 of the molar value.
# Tests used:
# [1] = molecular target: human Fibroblast activation protein alpha (hFAP) (Homo sapiens (Human), UniProt Q12884); assay: hFAP inhibition assay (tight binders); type: biochemical; settings: Ala-Pro-AMC 20 μM, n = 1 or geometric mean n = 2-6; note: hFAP 2.4 pM
# Procedure: The plates were read on a PHERAstar® reader with excitation 340 nm and emission 460 nm. Data were analyzed in Genedata Screener®. IC50 values were determined by plotting % inhibition versus log compound concentration and using a one site dose response model.
# [2] = molecular target: hFAP (M39-A757) (Homo sapiens (Human), UniProt Q12884); assay: hFAP binding assay (surface plasmon resonance); settings: SPR, 20° C.; for pKd: n = 1 or geometric mean n = 2-4; for hFAP Binding assay k(off) / hFAP Binding assay k(on): single cycle kinetics
# [3] = molecular target: Prolyl endopeptidase, Prolyl Oligopeptidase (hPREP) (Homo sapiens (Human), UniProt P48147); assay: hPrep inhibition assay; type: biochemical; settings: hPREP 0.6 nM, Z-Gly-Pro-amino-methylcoumarin 50 μM; read-out: PREP IC50
# Method in brief: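 Fluorogenic read-out (340 nm excitation, 460 nm emission) after 20 min at rt, using 50 μM final Z-Gly-Pro-aminomethylcoumarin and 0.6 nM final enzyme, following 15 min compound preincubation. Buffer pH 7.5 with glutathione and Triton X-100. IC50 via one-site model on % inhibition vs log concentration.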
# [4] = Kinetic solubility; settings: kinetic from dmso stock
# Procedure: Kinetic solubility was measured as described in Comput Aided Mol Des 2015, 29, 795.
# [5] = Metabolic stability in rat hepatocytes (rHep); settings: n = 1 or geometric mean of n = 2-3
# [6] = Metabolic stability in human liver microsomes (HLM); settings: human
# Procedure: Metabolic stability in HLM was measured as described in J Comput Aided Mol Des 2015, 29, 795.
# [7] = Solubility, kinetic solubility, n = 1 or average of n = 2-3
# [8] = HLM CLint, n = 1 or average of n = 2-3
# human Fibroblast activation protein alpha (hFAP), sequence (Q12884 38-760): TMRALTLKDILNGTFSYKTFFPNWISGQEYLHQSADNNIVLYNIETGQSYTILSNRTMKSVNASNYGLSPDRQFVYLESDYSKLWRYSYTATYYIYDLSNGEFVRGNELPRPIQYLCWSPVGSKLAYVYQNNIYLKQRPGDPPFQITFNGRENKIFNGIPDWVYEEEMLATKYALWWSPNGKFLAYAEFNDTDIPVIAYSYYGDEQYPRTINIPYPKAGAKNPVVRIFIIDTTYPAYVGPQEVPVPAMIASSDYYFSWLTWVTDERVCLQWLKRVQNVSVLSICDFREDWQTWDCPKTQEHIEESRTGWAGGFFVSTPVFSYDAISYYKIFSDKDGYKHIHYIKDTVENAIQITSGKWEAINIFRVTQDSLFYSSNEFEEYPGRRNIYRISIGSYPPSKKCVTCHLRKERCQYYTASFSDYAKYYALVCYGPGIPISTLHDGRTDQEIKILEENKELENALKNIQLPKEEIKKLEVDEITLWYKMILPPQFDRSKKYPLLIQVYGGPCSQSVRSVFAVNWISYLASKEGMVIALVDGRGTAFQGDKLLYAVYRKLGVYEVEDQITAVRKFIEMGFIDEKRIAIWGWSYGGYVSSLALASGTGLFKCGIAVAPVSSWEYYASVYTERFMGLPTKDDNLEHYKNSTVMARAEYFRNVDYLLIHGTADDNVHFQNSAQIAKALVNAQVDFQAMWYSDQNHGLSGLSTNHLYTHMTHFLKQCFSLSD
# hFAP (M39-A757), sequence (Q12884 39-757): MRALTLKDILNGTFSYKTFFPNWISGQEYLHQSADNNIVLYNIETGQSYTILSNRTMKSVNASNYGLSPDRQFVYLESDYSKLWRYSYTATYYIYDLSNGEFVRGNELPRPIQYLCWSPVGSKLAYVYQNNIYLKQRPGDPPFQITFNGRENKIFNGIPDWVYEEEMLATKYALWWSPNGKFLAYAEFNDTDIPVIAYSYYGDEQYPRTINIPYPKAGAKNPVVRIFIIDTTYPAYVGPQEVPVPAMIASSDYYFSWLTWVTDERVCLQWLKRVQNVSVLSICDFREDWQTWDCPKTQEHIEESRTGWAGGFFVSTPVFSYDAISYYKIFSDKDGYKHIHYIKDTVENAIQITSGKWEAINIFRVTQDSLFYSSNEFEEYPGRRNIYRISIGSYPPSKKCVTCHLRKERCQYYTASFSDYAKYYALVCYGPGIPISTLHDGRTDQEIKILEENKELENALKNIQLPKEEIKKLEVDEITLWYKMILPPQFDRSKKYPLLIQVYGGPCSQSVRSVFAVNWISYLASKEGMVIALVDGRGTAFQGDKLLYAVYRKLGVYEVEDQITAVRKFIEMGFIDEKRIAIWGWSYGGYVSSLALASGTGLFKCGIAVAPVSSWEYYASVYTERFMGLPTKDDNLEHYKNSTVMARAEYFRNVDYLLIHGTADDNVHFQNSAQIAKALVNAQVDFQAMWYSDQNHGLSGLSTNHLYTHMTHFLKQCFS
# Prolyl endopeptidase, Prolyl Oligopeptidase (hPREP), sequence (P48147 whole entry): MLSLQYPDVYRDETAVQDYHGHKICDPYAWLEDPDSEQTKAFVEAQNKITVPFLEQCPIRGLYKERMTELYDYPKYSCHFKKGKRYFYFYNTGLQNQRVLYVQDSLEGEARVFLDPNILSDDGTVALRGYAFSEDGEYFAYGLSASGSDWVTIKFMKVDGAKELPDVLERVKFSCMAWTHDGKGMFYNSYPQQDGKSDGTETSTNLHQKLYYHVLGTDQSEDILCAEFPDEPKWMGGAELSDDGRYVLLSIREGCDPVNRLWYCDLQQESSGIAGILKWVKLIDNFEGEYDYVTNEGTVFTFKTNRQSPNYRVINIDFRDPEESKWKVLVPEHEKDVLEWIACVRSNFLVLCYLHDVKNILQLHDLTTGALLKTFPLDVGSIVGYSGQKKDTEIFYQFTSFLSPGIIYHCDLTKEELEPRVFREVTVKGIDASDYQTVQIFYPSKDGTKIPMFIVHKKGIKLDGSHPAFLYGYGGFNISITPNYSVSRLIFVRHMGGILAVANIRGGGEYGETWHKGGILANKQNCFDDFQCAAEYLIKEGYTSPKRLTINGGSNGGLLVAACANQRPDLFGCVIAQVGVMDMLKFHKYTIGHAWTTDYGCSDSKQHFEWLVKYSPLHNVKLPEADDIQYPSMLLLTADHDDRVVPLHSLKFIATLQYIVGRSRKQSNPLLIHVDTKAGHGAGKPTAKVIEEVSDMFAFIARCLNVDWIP
SMILES,pIC50 [1],pKd [2],pIC50 [3],solubility [4],rHep CLint [5],microsomal CLint [6],hFAP Binding assay k(off) [2],hFAP Binding assay k(on) [2],"solubility [4, 7]","microsomal CLint [6, 8]"
"N#C[C@@H]1CSCN1C(=O)CNC(=O)c1ccnc2ccc(N3CC4(CCCC4)C3)cc12 [Example 139, (R)—N-(2-(4-Cyanothiazolidin-3-yl)-2-oxoethyl)-6-(2-azaspiro[3.4]octan-2-yl)quinoline-4-carboxamide]",9.49,10.82,6.00,50 µM,13 μL/min/1E6,72 µL/min/mg,–,–,–,–
"Cc1cc2nccc(C(=O)NCC(=O)N3CSC[C@H]3C#N)c2cc1N1CCOCC1 [Example 10, (R)—N-(2-(4-Cyanothiazolidin-3-yl)-2-oxoethyl)-7-methyl-6-morpholino-quinoline-4-carboxamide]",10.27,9.82,6.03,–,41 μL/min/1E6,–,0.000056 s⁻¹,370000 M⁻¹ s⁻¹,270 µM,130 µL/min/mg
"N#C[C@@H]1CSCN1C(=O)CNC(=O)c1ccnc2ccc(N3CC(CC(F)(F)F)C3)cc12 [Example 158, (R)—N-(2-(4-Cyanothiazolidin-3-yl)-2-oxoethyl)-6-(3-(2,2,2-trifluoroethyl)-azetidin-1-yl)quinoline-4-carboxamide]",10.00,10.00,6.25,–,4.7 μL/min/1E6,–,0.00029 s⁻¹,3100000 M⁻¹ s⁻¹,8.9 µM,17 µL/min/mg
"CCC1(C)CN(c2ccc3nccc(C(=O)NCC(=O)N4CSC[C@H]4C#N)c3c2)C1 [Example 137, (R)—N-(2-(4-Cyanothiazolidin-3-yl)-2-oxoethyl)-6-(3-ethyl-3-methyl-azetidin-1-yl)quinoline-4-carboxamide]",9.96,10.89,6.47,–,17 μL/min/1E6,–,0.000098 s⁻¹,9500000 M⁻¹ s⁻¹,74 µM,70 µL/min/mg
"N#C[C@@H]1CSCN1C(=O)CNC(=O)c1ccnc2ccc(N3CCC(F)(c4ccccc4)CC3)cc12 [Example 223, (R)—N-(2-(4-Cyanothiazolidin-3-yl)-2-oxoethyl)-6-(4-fluoro-4-phenyl-piperidin-1-yl)quinoline-4-carboxamide]",10.12,11.00,7.07,–,51 μL/min/1E6,–,0.000026 s⁻¹,2500000 M⁻¹ s⁻¹,< 1.6 µM,57 µL/min/mg
"N#C[C@@H]1CSCN1C(=O)CNC(=O)c1ccnc2ccc(N3CCO[C@@H](C(F)(F)F)C3)cc12 [Example 73, N-(2-((R)-4-Cyanothiazolidin-3-yl)-2-oxoethyl)-6-((R)-2-(trifluoromethyl)-morpholino)quinoline-4-carboxamide]",9.89,10.18,5.74,–,11 μL/min/1E6,–,0.00016 s⁻¹,2400000 M⁻¹ s⁻¹,310 µM,32 µL/min/mg
"CC(C)OC1CCN(c2ccc3nccc(C(=O)NCC(=O)N4CSC[C@H]4C#N)c3c2)CC1 [Example 43, (R)—N-(2-(4-Cyanothiazolidin-3-yl)-2-oxoethyl)-6-(4-isopropoxypiperidin-1-yl)quinoline-4-carboxamide]",10.35,11.21,6.00,–,9.1 μL/min/1E6,–,0.000019 s⁻¹,3200000 M⁻¹ s⁻¹,52 µM,36 µL/min/mg
"CC1(C)CN(c2ccc3nccc(C(=O)NCC(=O)N4CSC[C@H]4C#N)c3c2)CCC1(F)F [Example 38, (R)—N-(2-(4-Cyanothiazolidin-3-yl)-2-oxoethyl)-6-(4,4-difluoro-3,3-dimethylpiperidin-1-yl)quinoline-4-carboxamide]",10.00,9.96,6.32,–,>300 μL/min/1E6,–,0.000078 s⁻¹,520000 M⁻¹ s⁻¹,33 µM,> 300 µL/min/mg
"C[C@H]1N(c2ccc3nccc(C(=O)NCC(=O)N4CSC[C@H]4C#N)c3c2)CC1(F)F (mixture of isomers) [Example 159, N-(2-((R)-4-Cyanothiazolidin-3-yl)-2-oxoethyl)-6-((RS)-3,3-difluoro-2-methylazetidin-1-yl)quinoline-4-carboxamide]",10.14,10.41,6.55,–,47 μL/min/1E6,–,0.000092 s⁻¹,2100000 M⁻¹ s⁻¹,550 µM,61 µL/min/mg
"CC(C)C1CN(c2ccc3nccc(C(=O)NCC(=O)N4CSC[C@H]4C#N)c3c2)C1 [Example 148, (R)—N-(2-(4-Cyanothiazolidin-3-yl)-2-oxoethyl)-6-(3-isopropylazetidin-1-yl)quinoline-4-carboxamide]",10.23,10.51,6.38,–,12 μL/min/1E6,–,0.0002 s⁻¹,6600000 M⁻¹ s⁻¹,3.4 µM,53 µL/min/mg
"CC1CC2(C1)CN(c1ccc3nccc(C(=O)NCC(=O)N4CSC[C@H]4C#N)c3c1)C2 [Example 149, (R)—N-(2-(4-Cyanothiazolidin-3-yl)-2-oxoethyl)-6-(6-methyl-2-azaspiro[3.3]heptan-2-yl)quinoline-4-carboxamide]",10.01,11.06,6.33,130 µM,7 μL/min/1E6,56 µL/min/mg,0.000039 s⁻¹,4800000 M⁻¹ s⁻¹,–,–
"N#C[C@@H]1CSCN1C(=O)CNC(=O)c1ccnc2ccc(N3CCC4(CCOCC4)CC3)cc12 [Example 162, (R)—N-(2-(4-cyanothiazolidin-3-yl)-2-oxoethyl)-6-(3-oxa-9-azaspiro[5.5]undecan-9-yl)quinoline-4-carboxamide]",10.28,10.74,6.55,140 µM,3.4 μL/min/1E6,44 µL/min/mg,0.000028 s⁻¹,1900000 M⁻¹ s⁻¹,–,–
"N#C[C@@H]1CSCN1C(=O)CNC(=O)c1ccnc2ccc(-n3ccc(-c4ccccc4)c3)cc12 [Example 218, (R)—N-(2-(4-Cyanothiazolidin-3-yl)-2-oxoethyl)-6-(3-phenyl-1H-pyrrol-1-yl)quinoline-4-carboxamide]",10.17,9.32,6.41,–,18 μL/min/1E6,–,0.00032 s⁻¹,670000 M⁻¹ s⁻¹,< 0.16 µM,37 µL/min/mg
"N#C[C@@H]1CSCN1C(=O)CNC(=O)c1ccnc2ccc(N3CC(OC(F)F)C3)cc12 [Example 136, (R)—N-(2-(4-Cyanothiazolidin-3-yl)-2-oxoethyl)-6-(3-(difluoromethoxy)-azetidin-1-yl)quinoline-4-carboxamide]",10.21,10.44,6.52,–,4.8 μL/min/1E6,–,0.000050 s⁻¹,2000000 M⁻¹ s⁻¹,21 µM,< 3 µL/min/mg
